Measurements as given in patent US12390451B2, “Small molecule inhibitor of the JAK family of kinases” (Janssen Pharmaceutica NV, priority 2021, dated 2025).
Read-outs that look alike come from different tables or passages of the source.

Assays:
[1] = Tissue distribution in mice after oral administration; assay type: in vivo, female C57Bl/6 mice; conditions: oral 10 mg/kg; for concentration at 0.5 h / concentration at 1 h / concentration at 2 h / concentration at 3 h / concentration at 5 h / concentration at 7 h / concentration at 24 h: female, C57Bl/6, mouse
Method: Limited tissue (liver, intestine) distribution studies were conducted in female C57Bl/6 mice ([…]) at 0.5, 1, 2, 3, 5, 7, and 24 hours following oral administration of compound of Formula 1 at a dose of 10 mg/kg formulated as a solution in 20% HP-β-CD. The plasma and the following tissues were harvested for compound concentration analysis: liver, whole ileum, and whole colon. The ileum and colon were flushed with saline prior to homogenization. Feces were collected over a period of 24 hours. All tissues (except plasma) were homogenized in sterile water and compound of Formula I concentrations were determined using LC-MS/MS. […] The concentration of compound of Formula I in feces was 125.6 μg at 24 hours post dose.

[2] = target: T1, JAK1/3 (Mus musculus, UniProt P52332+Q62137); assay: IL-21-induced pSTAT-3 in murine whole blood; assay type: cell-based
T1 construct: endogenous in cells; host or cells: murine whole blood
Method: (§1) Mouse whole blood IC50 values were also generated to build an understanding of the relationship between systemic exposures and target engagement in murine models. In murine whole blood, the in vitro activity of compound of Formula I in the inhibition of IFNα-(JAK1/Tyk2), IL-21-(JAK1/3), and IL-12-(JAK2/Tyk2) induced pSTAT responses in murine whole blood was measured. […] No reliable IC50 could be reported for inhibition of IL-12 induced pSTAT-4 in murine whole blood.

[3] = target: T2, JAK1/JAK3 (Homo sapiens, UniProt P23458+P52333); assay: IL-21-induced pSTAT-3 in human whole blood; assay type: cell-based; conditions: mean
T2 construct: endogenous in cells; host or cells: human whole blood
Method: Compound of Formula I presents low levels of systemic exposure after oral administration. To understand the relationship between systemic exposure and target engagement in human studies, the inhibition of cytokine-induced pSTAT-3 in human whole blood was measured with such compound. In human whole blood, compound of Formula I in a concentration-dependent manner inhibited the JAK1, JAK2, JAK3, and Tyk2 homo- and heterodimers downstream of IFNα (JAK1/Tyk2), thrombopoietin (TPO) (JAK2/JAK2), and IL-21 (JAK1/JAK3) signaling.

[4] = system: IL-12/IL-18-induced pSTAT-3 in the colon; assay: IL-12/IL-18-induced colonic pSTAT-3 response in mice after oral dosing; assay type: in vivo, C57BL/6 mice; conditions: Mus musculus, read-out: Percent Inhibition of colonic pSTAT-3
From the text: To understand the potential of local, enteric-selective JAK inhibitors to inhibit STAT signaling in colon tissue, two pharmacokinetic/pharmacodynamic (PK/PD) studies were developed. The first involved the combined intraperitoneal administration of IL-12 and IL-18 in mice which induces a systemic inflammatory response resulting in activation of the JAK/STAT pathway in colonic tissue which can be monitored by robust phosphorylation of STAT3 three hours after challenge. The second PK/PD model involves the ex vivo stimulation of mouse colon tissue with a cocktail of cytokines (IL-22, IL-6, and IFNα), measuring the inhibition of STAT3 phosphorylation after oral dosing of compound of Formula I.
The combined intraperitoneal administration of IL-12 and IL-18 induces colonic inflammation in mice (Chikano S, et al. Gut 47(6),779-786 (2000) “IL-18 and IL-12 induce intestinal inflammation and fatty liver in mice in an IFN-gamma dependent manner”; Nold-Petry C, et al. Front Immunol. 8, 1531(2017) “Gp96 Antagonist Protects in Murine-Intestinal-Inflammation”). An inflammatory response in colonic tissue can be monitored by robust phosphorylation of STAT3 three hours after challenge with IL 12/IL-18. In this non-GLP study, the effect of the orally administered compound of Formula I was evaluated on STAT3 responses in mouse colonic tissue induced by systemic dosing of both IL-12 and IL 18.
C57BL/6 mice (6 to 8 weeks old) were randomized by weight and assigned to various treatment groups for each of two studies. Mice were challenged intraperitoneally with a combination of IL-12 (250 ng) and IL-18 (1 μg). To examine the effect of compound of Formula I on IL-12/IL-18-induced pSTAT-3 response, groups of mice were orally dosed with compound of Formula I 1 hour prior to IL-12/IL-18 challenge. Three hours after IL-12/IL-18 challenge, mice were euthanized with CO2 asphyxiation, blood was collected via cardiocentesis for PK analysis, and colon tissues were collected for measuring pSTAT-3 response and drug levels. Mice dosed orally with 20% 2-hydroxypropyl-β-cyclodextrin (HP-β-CD) were used as vehicle controls. Two independent studies (S-1 and S-2) were conducted to examine the effect of compound of Formula I on IL-12/IL-18-induced colonic pSTAT-3 response in mice. […] Serum levels were measured at 30 minutes and 4 hours (terminal) after dosing. […] Colon drug levels were measured 4 hours after dosing. […] Colonic exposure of compound of Formula I increased in a dose-dependent fashion. At 25 mg/kg dose, colonic exposure of compound of Formula I was 30814.5±5552.5 ng/g and 18256.5±4118.8 ng/g tissue. […] Oral dosing of compound of Formula I in mice resulted, as shown in other studies, in minimum systemic exposure and lack of consistent dose-dependent pharmacodynamic responses in the blood.
Percent inhibition of colonic pSTAT-3 was determined using log transformed data following outlier removal.

[5] = target: T3, JAK1/Tyk2 (Mus musculus, UniProt P52332+Q9R117); assay: IFNα-induced pSTAT-3 in murine whole blood; assay type: cell-based
T3 construct: endogenous in cells; host or cells: murine whole blood
Method: as §1

[6] = colon, mean ± SD, read-out: Colon concentration
[7] = ileum, mean ± SD, read-out: Ileum concentration
[8] = liver, mean ± SD, read-out: Liver concentration
[9] = plasma, mean ± SD, read-out: Plasma concentration

T2 sequence (P23458 whole entry): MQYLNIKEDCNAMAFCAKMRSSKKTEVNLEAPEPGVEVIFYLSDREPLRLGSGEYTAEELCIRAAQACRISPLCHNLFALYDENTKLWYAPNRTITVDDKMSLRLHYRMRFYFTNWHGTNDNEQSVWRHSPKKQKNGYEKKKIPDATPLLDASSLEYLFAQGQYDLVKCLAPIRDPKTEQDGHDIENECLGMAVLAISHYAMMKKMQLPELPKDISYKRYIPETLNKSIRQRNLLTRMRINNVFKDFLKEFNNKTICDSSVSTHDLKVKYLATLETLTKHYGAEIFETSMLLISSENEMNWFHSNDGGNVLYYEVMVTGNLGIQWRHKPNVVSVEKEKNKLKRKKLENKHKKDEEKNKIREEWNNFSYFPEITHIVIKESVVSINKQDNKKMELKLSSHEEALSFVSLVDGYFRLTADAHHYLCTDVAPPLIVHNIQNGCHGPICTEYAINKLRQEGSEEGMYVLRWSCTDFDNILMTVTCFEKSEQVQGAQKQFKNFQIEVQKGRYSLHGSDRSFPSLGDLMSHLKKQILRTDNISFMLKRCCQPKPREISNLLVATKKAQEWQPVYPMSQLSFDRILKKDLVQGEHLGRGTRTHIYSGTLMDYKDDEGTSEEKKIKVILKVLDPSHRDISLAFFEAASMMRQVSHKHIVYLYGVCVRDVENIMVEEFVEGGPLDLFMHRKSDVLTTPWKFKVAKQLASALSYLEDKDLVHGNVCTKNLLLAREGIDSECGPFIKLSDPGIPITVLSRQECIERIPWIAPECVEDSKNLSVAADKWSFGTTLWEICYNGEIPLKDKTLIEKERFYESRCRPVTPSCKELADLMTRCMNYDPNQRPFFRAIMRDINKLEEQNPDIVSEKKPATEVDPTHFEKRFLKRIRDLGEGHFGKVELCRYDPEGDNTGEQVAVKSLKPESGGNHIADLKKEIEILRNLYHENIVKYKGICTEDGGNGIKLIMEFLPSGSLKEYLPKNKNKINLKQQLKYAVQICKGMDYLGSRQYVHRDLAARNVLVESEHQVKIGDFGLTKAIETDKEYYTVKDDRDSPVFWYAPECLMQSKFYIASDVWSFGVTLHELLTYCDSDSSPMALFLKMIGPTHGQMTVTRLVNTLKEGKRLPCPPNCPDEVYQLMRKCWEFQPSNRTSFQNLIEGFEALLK
T2 sequence (P52333 whole entry): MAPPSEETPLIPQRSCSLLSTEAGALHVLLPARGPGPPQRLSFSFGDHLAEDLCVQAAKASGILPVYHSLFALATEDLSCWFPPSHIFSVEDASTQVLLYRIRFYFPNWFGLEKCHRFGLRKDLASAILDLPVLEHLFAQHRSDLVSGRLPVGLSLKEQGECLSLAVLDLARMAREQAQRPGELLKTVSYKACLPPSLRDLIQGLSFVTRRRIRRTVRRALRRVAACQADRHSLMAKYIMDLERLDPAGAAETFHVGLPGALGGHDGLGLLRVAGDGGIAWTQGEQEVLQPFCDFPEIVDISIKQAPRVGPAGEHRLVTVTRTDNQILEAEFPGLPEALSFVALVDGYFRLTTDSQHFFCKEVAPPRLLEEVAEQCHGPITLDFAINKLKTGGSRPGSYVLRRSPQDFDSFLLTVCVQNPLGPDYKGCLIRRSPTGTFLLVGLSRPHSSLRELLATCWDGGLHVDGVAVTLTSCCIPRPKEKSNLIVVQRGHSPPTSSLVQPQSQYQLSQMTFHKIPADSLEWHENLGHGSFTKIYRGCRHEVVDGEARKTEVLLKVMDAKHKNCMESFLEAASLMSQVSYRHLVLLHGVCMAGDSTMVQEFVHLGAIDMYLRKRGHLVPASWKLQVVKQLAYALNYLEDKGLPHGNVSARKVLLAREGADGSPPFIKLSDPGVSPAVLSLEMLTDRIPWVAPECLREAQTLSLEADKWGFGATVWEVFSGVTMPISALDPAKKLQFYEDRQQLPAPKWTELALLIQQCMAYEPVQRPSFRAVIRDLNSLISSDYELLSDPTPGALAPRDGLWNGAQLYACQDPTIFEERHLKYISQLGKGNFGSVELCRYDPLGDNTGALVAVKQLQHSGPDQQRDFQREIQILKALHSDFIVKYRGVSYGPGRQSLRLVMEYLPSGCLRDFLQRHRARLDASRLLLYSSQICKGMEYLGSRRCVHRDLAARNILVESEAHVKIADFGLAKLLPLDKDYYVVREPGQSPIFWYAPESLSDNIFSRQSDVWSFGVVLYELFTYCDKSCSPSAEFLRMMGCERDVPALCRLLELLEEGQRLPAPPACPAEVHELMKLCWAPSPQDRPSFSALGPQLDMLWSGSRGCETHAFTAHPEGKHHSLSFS
T2 sequence (Q9HBE5 20-538 partner): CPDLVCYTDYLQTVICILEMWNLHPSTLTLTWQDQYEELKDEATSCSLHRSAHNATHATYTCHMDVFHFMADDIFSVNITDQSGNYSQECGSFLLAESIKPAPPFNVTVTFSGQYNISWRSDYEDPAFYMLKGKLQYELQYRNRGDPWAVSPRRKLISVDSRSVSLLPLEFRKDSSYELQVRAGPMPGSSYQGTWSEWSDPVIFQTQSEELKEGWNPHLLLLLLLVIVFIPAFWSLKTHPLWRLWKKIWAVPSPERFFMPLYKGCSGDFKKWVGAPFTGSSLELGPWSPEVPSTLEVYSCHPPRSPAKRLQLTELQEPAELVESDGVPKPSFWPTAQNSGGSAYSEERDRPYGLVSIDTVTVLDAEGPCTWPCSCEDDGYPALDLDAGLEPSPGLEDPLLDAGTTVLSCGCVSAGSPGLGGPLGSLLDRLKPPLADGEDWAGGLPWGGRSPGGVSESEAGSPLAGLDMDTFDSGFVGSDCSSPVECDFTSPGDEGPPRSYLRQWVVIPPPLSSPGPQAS
T2 sequence (P31785 23-369 partner): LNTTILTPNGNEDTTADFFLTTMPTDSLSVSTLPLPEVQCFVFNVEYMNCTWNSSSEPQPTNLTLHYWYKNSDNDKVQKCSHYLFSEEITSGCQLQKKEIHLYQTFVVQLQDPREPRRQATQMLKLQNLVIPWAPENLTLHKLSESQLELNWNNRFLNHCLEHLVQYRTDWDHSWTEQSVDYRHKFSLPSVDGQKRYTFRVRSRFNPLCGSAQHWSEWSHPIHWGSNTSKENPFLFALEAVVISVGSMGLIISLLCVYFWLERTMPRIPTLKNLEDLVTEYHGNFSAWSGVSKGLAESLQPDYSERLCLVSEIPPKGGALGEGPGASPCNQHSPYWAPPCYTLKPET

- concentration at 0.5 h ([1]; colon, N = 2, read-out: Colon concentration): 94.2 ng/g
- concentration at 1 h [1, 6]: 5110 ng/g
- concentration at 2 h [1, 6]: 6620 ng/g
- concentration at 3 h [1, 6]: 7760 ng/g
- concentration at 5 h [1, 6]: 8450 ng/g
- concentration at 7 h [1, 6]: 3790 ng/g
- concentration at 24 h ([1]; colon, 24 h, mean ± SD, read-out: Colon concentration): 195 ± 120 ng/g
- concentration at 0.5 h [1, 7]: 73.8 ± 11.6 ng/g
- concentration at 1 h [1, 7]: 22700 ng/g
- concentration at 2 h [1, 7]: 12000 ng/g
- concentration at 3 h [1, 7]: 16400 ng/g
- concentration at 5 h [1, 7]: 3440 ng/g
- concentration at 7 h [1, 7]: 2250 ng/g
- concentration at 24 h ([1]; ileum, 24 h, mean ± SD, read-out: Ileum concentration): 87.6 ± 17.8 ng/g
- concentration at 0.5 h [1, 8]: 34.8 ± 16.5 ng/g
- concentration at 1 h [1, 8]: 189 ± 304 ng/g
- concentration at 2 h [1, 8]: 84.5 ± 114 ng/g
- concentration at 3 h [1, 8]: 23.3 ± 0.8 ng/g
- concentration at 5 h [1, 8]: 16.8 ± 8.8 ng/g
- concentration at 7 h ([1]; liver, N = 2, read-out: Liver concentration): 24 ng/g
- concentration at 0.5 h [1, 9]: 3.5 ± 1.8 ng/mL
- concentration at 1 h [1, 9]: 2.6 ± 0.9 ng/mL
- concentration at 2 h [1, 9]: 2.3 ± 0.2 ng/mL
- concentration at 3 h [1, 9]: 3.2 ± 1.7 ng/mL
- concentration at 5 h [1, 9]: 2.1 ± 0.9 ng/mL
- concentration at 7 h [1, 9]: 6 ± 4.9 ng/mL
- Liver concentration ([1]; 24 h, BLOQ (1 ng/mL)): BLOQ^b
- Plasma concentration ([1]; 24 h, BLOQ (1 ng/mL)): BLOQ^b
- concentration in feces ([1]; 24 hours post dose): 125.6 µg
- IC50 [2]: 415 nM
- IC50 [3]: 579 nM
- IC50 [5]: 299 nM
SMILES: CC(C)(O)CNC(=O)Cc1nc2cnc3[nH]ccc3c2n1[C@H]1CC[C@H](CC#N)CC1 [Compound of Formula I, 2-(1-((1r,4r)-4-(Cyanomethyl)cyclohexyl)-1,6-dihydroimidazo[4,5-d]pyrrolo[2,3-b]pyridin-2-yl)-N-(2-hydroxy-2-methylpropyl)acetamide]
- inhibition at 10 mg/kg ([4]; Study S-1, oral 10 mg/kg): 3.9%
- inhibition at 25 mg/kg ([4]; Study S-1, oral 25 mg/kg): 25.8%
- inhibition at 50 mg/kg ([4]; Study S-1, oral 50 mg/kg): 49.7%
- inhibition at 10 mg/kg ([4]; Study S-2, oral 10 mg/kg): 33.1%
- inhibition at 25 mg/kg ([4]; Study S-2, oral 25 mg/kg): 61.2%
- inhibition at 50 mg/kg ([4]; Study S-2, oral 50 mg/kg): 66.1%
